Laboratory results as given in patent publication US7192924B2, “Corticotropin releasing factor 2 receptor agonists” (priority 2002, dated 2007).
pEC50: −log10 of the molar value. Peptide text beside a SMILES is read from it.

target: T1, CRF2R (Homo sapiens, UniProt Q13324); assay: CRF2R agonist activity (EC50, Emax), called comparative CRF binding; format: cell-based; details: read-out: CRF2R EC50
T1 sequence (Q13324 1-411): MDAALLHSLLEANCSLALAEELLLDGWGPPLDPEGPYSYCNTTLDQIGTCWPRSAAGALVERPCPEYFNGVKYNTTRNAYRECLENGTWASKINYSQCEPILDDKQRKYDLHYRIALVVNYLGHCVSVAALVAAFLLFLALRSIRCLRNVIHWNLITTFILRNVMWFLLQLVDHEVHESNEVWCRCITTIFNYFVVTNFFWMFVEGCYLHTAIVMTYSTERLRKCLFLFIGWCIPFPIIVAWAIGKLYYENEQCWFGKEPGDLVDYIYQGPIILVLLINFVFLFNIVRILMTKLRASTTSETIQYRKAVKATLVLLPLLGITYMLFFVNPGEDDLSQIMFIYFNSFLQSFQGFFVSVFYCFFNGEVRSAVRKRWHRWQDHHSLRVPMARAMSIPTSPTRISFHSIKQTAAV
Source text: The pharmacological activity and selectivity of the peptides of present invention can be determined using published test procedures. See, e.g, U.S. patent application Ser. No. 09/799,978. Because CRF2R and CRF1R are homologous proteins, it is expected that a certain proportion of agonists for CRF2R will also function as agonists of CRF1R. As discussed above, activation of CRF1R induces activation of the HPA axis since increased corticosteroid production leads to skeletal muscle atrophy. In most cases in which an increase in muscle mass or function is desired, it is not desirable to activate the HPA axis.
Because it is desirable to discriminate binding between CRF2R, as compared with CRF1R, the assays described above may be conducted using a cell, or membrane from a cell, which expresses only CRF2R or the assays can be conducted with a recombinant source of CRF2R. Cells expressing both forms of CRFR may be modified using homologous recombination to inactivate or otherwise disable the CRF1R gene. Alternatively, if the source of CRFR contains more than one CRFR type, the background signal produced by the receptor which is not of interest must be subtracted from the signal obtained in the assay. […] Known antagonists of CRFRs include, but, are not limited to, antalarmin (CRF1R selective), antisauvagine-30 (CRF2R selective) and astressin (nonselective for CRF1R/CRF2R).
Cell-based assays include the steps of contacting cells which express CRF1R or CRF2R with a peptide of the present invention or control and measuring activation of the CRFR by measuring the expression or activity of components of the CRFR signal transduction pathways.
As described in the background section above, CRFRs appear to couple through several different pathways including Gαs, Gαq or Gαi, depending upon the cell type. It is thought that agonist activation of CRFR allows the receptor to signal via any of these pathways, provided that the necessary pathway components are present in the particular cell type. Thus, to assay a particular peptide of the present invention for CRFR activation, an assay can use any of the signal transduction pathways as the readout even if the relevant cell type for treatment, in vivo, couples CRFR to skeletal muscle atrophy via a different pathway. […] Assays for measuring activation of these signaling pathways are known in the art.
For example, after contact with a peptide of the present invention, lysates of the cells can be prepared and assayed for induction of cAMP. cAMP is induced in response to Gαs activation. Because Gαs is activated by receptors other than CRFR and because a test peptide may be exerting its effect through CRFRs or by another mechanism, two control comparisons are relevant for determining whether the peptide increases levels of cAMP via activation of a CRFR. One control compares the cAMP level of cells contacted with the peptide and the cAMP level of cells contacted with a control compound (i.e., the vehicle in which the peptide is dissolved).
In one example, cAMP induction is measured with the use of DNA constructs containing the cAMP responsive element linked to any of a variety of reporter genes can be introduced into cells expressing CRFRs. Such reporter genes include, but are not limited to, chloramphenicol acetyltransferase (CAT), luciferase, glucuronide synthetase, growth hormone, fluorescent proteins (e.g., Green Fluorescent Protein), or alkaline phosphatase. Following exposure of the cells to the peptide, the level of reporter gene expression can be quantitated to determine the peptide's ability to increase cAMP levels and thus determine the peptide's ability to activate the CRFR.
In addition to using cells expressing full length CRFRs, cells can be engineered which express CRFRs containing the ligand binding domain of the receptor coupled to, or physically modified to contain, reporter elements or to interact with signaling proteins.

Q: `CC[C@H](C)[C@H](N)C(=O)N[C@H](C(=O)N[C@@H](CC(C)C)C(=O)N[C@@H](CO)C(=O)N[C@@H](CC(C)C)C(=O)N[C@@H](CC(=O)O)C(=O)N[C@H](C(=O)N1CCC[C@H]1C(=O)N[C@H](C(=O)NCC(=O)N[C@@H](CC(C)C)C(=O)N[C@@H](CC(C)C)C(=O)N[C@@H](CCC(N)=O)C(=O)N[C@H](C(=O)N[C@@H](CC(C)C)C(=O)N[C@@H](CC(C)C)C(=O)N[C@@H](CCC(=O)O)C(=O)N[C@@H](CCC(N)=O)C(=O)N[C@@H](CCC(=O)O)C(=O)N[C@@H](CCCCN)C(=O)N[C@@H](C)C(=O)N[C@@H](CCCNC(=N)N)C(=O)N[C@@H](C)C(=O)N[C@@H](C)C(=O)N[C@@H](CCCNC(=N)N)C(=O)N[C@@H](CCC(=O)O)C(=O)N[C@@H](CCC(N)=O)C(=O)N[C@@H](C)C(=O)N[C@H](C(=O)N[C@H](C(=O)N[C@@H](CC(N)=O)C(=O)N[C@@H](C)C(=O)N[C@@H](CCCNC(=N)N)C(=O)N[C@H](C(=O)N[C@@H](CC(C)C)C(=O)N[C@@H](C)C(=O)N[C@@H](CCCNC(=N)N)C(=O)N[C@H](C(N)=O)C(C)C)[C@@H](C)CC)[C@@H](C)O)[C@@H](C)O)[C@@H](C)CC)[C@@H](C)CC)C(C)C)C(C)C` [compound 325] (H-IVLSLDVPIGLLQILLEQEKARAAREQATTNARILARV-NH2) was tested. Which pEC50 did it give?
A: 7.93

Q: `CC[C@H](C)[C@H](NC(=O)[C@H](C)NC(=O)[C@H](CC(N)=O)NC(=O)[C@H](CCC(N)=O)NC(=O)[C@H](CCC(=O)O)NC(=O)[C@H](C)NC(=O)[C@H](CCCNC(=N)N)NC(=O)[C@H](CCC(=O)O)NC(=O)[C@H](CCCNC(=N)N)NC(=O)[C@H](CCC(N)=O)NC(=O)[C@H](CO)NC(=O)[C@H](CCC(N)=O)NC(=O)[C@@H](NC(=O)[C@H](CCCCN)NC(=O)[C@H](CCC(=O)O)NC(=O)[C@H](CC(C)C)NC(=O)[C@H](CCC(=O)O)NC(=O)[C@H](CC(C)C)NC(=O)[C@H](CC(C)C)NC(=O)[C@@H](NC(=O)[C@H](CCCNC(=N)N)NC(=O)[C@H](CC(C)C)NC(=O)[C@H](CC(C)C)NC(=O)[C@H](CC(C)C)NC(=O)[C@H](CC(C)C)NC(=O)[C@@H]1CCCN1C(=O)[C@H](CC(C)C)NC(=O)[C@H](CC(=O)O)NC(=O)[C@@H](NC(=O)[C@H](CO)NC(=O)[C@H](CC(C)C)NC(=O)[C@H](CO)NC(=O)[C@@H]1CCCN1C(=O)[C@H](CC(N)=O)NC(=O)[C@@H](N)CC(=O)O)[C@@H](C)CC)[C@@H](C)O)[C@@H](C)O)C(=O)N[C@H](C(=O)N[C@@H](Cc1ccccc1)C(=O)N[C@@H](C)C(=O)N[C@@H](CO)C(=O)N[C@H](C(N)=O)C(C)C)[C@@H](C)CC` [compound 346] (H-DNPSLSIDLPLLLLRTLLELEKTQSQRERAEQNAIIFASV-NH2) was tested. Which pEC50 did it give?
A: 8.07

Q: `CC[C@H](C)[C@H](NC(=O)[C@H](C)NC(=O)[C@H](CC(N)=O)NC(=O)[C@H](CCC(N)=O)NC(=O)[C@H](CCC(=O)O)NC(=O)[C@H](C)NC(=O)[C@H](CCCNC(=N)N)NC(=O)[C@H](CCC(=O)O)NC(=O)[C@H](CCCNC(=N)N)NC(=O)[C@H](CCC(N)=O)NC(=O)[C@H](CO)NC(=O)[C@H](CCC(N)=O)NC(=O)[C@@H](NC(=O)[C@H](CCCCN)NC(=O)[C@H](CCC(=O)O)NC(=O)[C@H](CC(C)C)NC(=O)[C@H](CCC(=O)O)NC(=O)[C@H](CC(C)C)NC(=O)[C@H](CC(C)C)NC(=O)[C@@H](NC(=O)[C@H](CCCNC(=N)N)NC(=O)[C@H](CC(C)C)NC(=O)[C@H](CC(C)C)NC(=O)[C@H](CC(C)C)NC(=O)[C@H](CC(C)C)NC(=O)[C@@H]1CCCN1C(=O)[C@H](CC(C)C)NC(=O)[C@H](CC(=O)O)NC(=O)[C@@H](NC(=O)[C@H](CO)NC(=O)[C@H](CC(C)C)NC(=O)[C@H](CO)NC(=O)[C@@H]1CCCN1)[C@@H](C)CC)[C@@H](C)O)[C@@H](C)O)C(=O)N[C@H](C(=O)N[C@@H](Cc1ccccc1)C(=O)N[C@@H](C)C(=O)N[C@@H](CO)C(=O)N[C@H](C(N)=O)C(C)C)[C@@H](C)CC` [compound 348] (H-PSLSIDLPLLLLRTLLELEKTQSQRERAEQNAIIFASV-NH2) was tested. Which pEC50 did it give?
A: 8.24
